Reference: US8722343B2, “Methods and compositions for the diagnosis and treatment of diabetes” (priority 2008, dated 2014)

Key:
αTC1 cells = assay: Na-dependent [3H]-D-aspartate uptake in αTC1 cells; assay type: cell-based, mouse; settings: DHK in uptake solution
Experimental: (§1) 2D: 3H-D-Aspartate uptake. Four days after plating the Na-dependent (NaCl) and Na-independent (ChCl) [3H]-D-Aspartate uptake was measured in αTC1 and βTC3 cells. Data are expressed as cpm/well/10 min and represent the mean±SE of at least three independent experiments performed in triplicate. * (NaCl vs ChCl) P<0.001; ° (DHK versus control) P<0.001.
(§2) 150.000 cells/well were plated in a 24-wells plate, and grown until confluence. After two washes in sodium-free solution (150 mM ChCl, 2 mM KCl, 1 mM CaCl2, 1 mM MgCl2, 10 mM Hepes pH 7.5), cells were incubated for 10 minutes in 200 μl of Na^+-dependent (150 mM NaCl 2 mM KCl, 1 mM CaCl2, 1 mM MgCl2, 10 mM Hepes pH 7.5) or Na^+-independent (sodium-free solution) uptake solution containing 5 μCi/ml of [^3H]D-Aspartic acid (specific activity 37 Ci/mmol; Amersham Biosciences). The amino acid uptake was stopped by washing the cells twice in ice-cold sodium-free solution. Cells were dissolved in 150 μl of SDS 1% for liquid scintillation counting. For transport inhibition, DHK was added to the uptake solution at the indicated concentrations.

human isolated islets = assay type: cell-based; settings: 16.7 mM glucose; DHK (0.3 mM) or L-glutamate (0.5 mM) alone
Experimental: FIG. 5: GLT1 CONTROLS HORMONE SECRETION IN HUMAN ISOLATED ISLETS. 48 hours after isolation, 20 human islets per tube were exposed to 3.3 or 16.7 mM glucose in the absence and the presence of either L-glutamate (0.5 mM), DHK (0.3 mM) or both L-glutamate and DHK, and insulin secretion measured. Levels of secreted insulin from islets were normalized to total insulin content. Data are expressed as % of insulin content and represent the mean±SD of two independent experiments performer in duplicate.
Insulin content and secretion were assessed on 20 islets, using a Micro-particle Enzyme Immunoassay (MEIA insulin, IMX System, Abbott Laboratories, Abbott Park, Ill., USA). Insulin secretion in response to increasing glucose concentrations, glutamate or DHK treatment was assessed by static incubation as previously described (Federici et al, 2000). Briefly, batches of 20 islets were pre-incubated in 1 ml of Krebs-Ringer buffer (KRB) supplemented with 3, 3 or 16.7 mM glucose for 30 min. Then the supernatants were replaced with Kreb's buffer containing 3, 3 or 16.7 mM glucose plus glutamate or the specific GLT1 inhibitor DHK (Sigma, St Louis, Mo., USA), as indicated. After a 30-min incubation at 37° C., the medium was removed and frozen for immunoassays. At the end of incubation, islets were lysed in lyses buffer and the total insulin content determined by immunoassay. […]

βTC3 cells = assay: TUNEL apoptosis assay in βTC3 cells; assay type: cell-based; settings: 0.1 mM DHK for five days
Experimental: 1B: Glutamate overstimulation causes increased β-cell apoptosis. 24 hours after plating, βTC3 cells were incubated for five days with 0.5 mM glutamate, and cell apoptosis was assessed by TUNEL assay. The cell nuclei were labelled with PrI. Histograms on the right represent TUNEL positive cells per field, and are the mean±SE of two independent experiments performed in duplicate.
6C TUNEL assay: 24 hours after plating, βTC3 cells were incubated for five days with 0.1 mM DHK, and cell apoptosis was assessed by TUNEL assay. Cell nuclei were labelled with PrI. Data are presented as TUNEL positive cells per field (histograms on the right), and are the mean±SE of two independent experiments performed in duplicate. * P<0.05
6D ShRNA interference. βTC3 cells were transfected with two different shRNA directed against GLT1 (Sh1, Sh3) or a control shRNA (ShC), and three days after transfection, cells were assayed for 3[H]-D-aspartate uptake (b) or lysed and the presence of GLT assayed by western blotting (a) or fixed and processed for TUNEL (c).
Apoptosis of β-TC3 cells was estimated using the terminal deoxynucleotidyltransferase-mediated dUTP-biotin nick end-labelling assay (TUNEL). […] Tunel-positive cells were counted by two independent observers using a 40× objective from at least 40 randomly selected fields per coverslip. […]

GLT1 [1] = molecular target: T1, GLT1 (Homo sapiens, UniProt P43004); assay: Na-dependent [3H]-D-aspartate uptake in isolated human islets; assay type: cell-based; design: dose or concentration left out as unconfirmed
T1 construct: from tissue; host or cells: isolated human pancreatic islets from cadaveric multiorgan donors
Experimental: 3B: 3H-D Aspartate uptake. The Na-dependent (NaCl) and Na-independent (ChCl) [3H]-D-Aspartate uptake was measured in 40, hand picked, isolated human islets. […] Data are expressed as % of Na-dependent uptake (NaCl) and represent the mean±SE of at least three independent experiments performed in triplicate. * (DHK versus controls) P<0.001.
Human pancreatic islets were isolated from the pancreases of cadaveric multiorgan donors by using the procedure already described by Ricordi (Ricordi, et al, 1988). The islets used in this study were isolated from eight different organs. After the isolation, the islets were purified from the contaminant exocrine tissue by centrifugation on Ficoll gradients, obtaining a final purity that ranged from 60% to 80%, as assayed by dithizone staining (Ricordi et al, 1988). Islets were then cultured in RPMI 1640 tissue culture medium. After a 48-h stabilization culture, old medium was replaced with fresh medium and islets were cultured until used for insulin secretory studies, RNA extraction and uptake experiments. For apoptosis assay, fresh medium containing glutamate (0.5 or 5 mM) or DHK (0.05 or 0.1 mM) was replaced and islets were cultured for additional five days.
150.000 cells/well were plated in a 24-wells plate, and grown until confluence. […]

GLT1 [2] = molecular target: T2, GLT1 (Mus musculus, UniProt P43006); assay: Na-dependent [3H]-D-aspartate uptake in βTC3 cells; assay type: cell-based
T2 construct: Since GLT1 is endogenously expressed in beta-TC3; endogenous in cells; host or cells: βTC3 mouse pancreatic beta-cell line
Experimental: as §1
3×10^5 βTC3 cells/well were plated onto 24-well culture plates and the Na-dependent [3H]-D-Aspartate uptake was measured in the presence or the absence of increasing DHK concentrations (0.05-0.3 mM). Data are expressed as cpm/well/10 min and represent the mean±SE of at least three independent experiments performer in triplicate. * (DHK versus controls) P<0.001.
as §2, with “For transport inhibition, DHK was added to the uptake solution at the indicated concentrations.” left out

T2 sequence (P43006 1-569 isoform P43006-2): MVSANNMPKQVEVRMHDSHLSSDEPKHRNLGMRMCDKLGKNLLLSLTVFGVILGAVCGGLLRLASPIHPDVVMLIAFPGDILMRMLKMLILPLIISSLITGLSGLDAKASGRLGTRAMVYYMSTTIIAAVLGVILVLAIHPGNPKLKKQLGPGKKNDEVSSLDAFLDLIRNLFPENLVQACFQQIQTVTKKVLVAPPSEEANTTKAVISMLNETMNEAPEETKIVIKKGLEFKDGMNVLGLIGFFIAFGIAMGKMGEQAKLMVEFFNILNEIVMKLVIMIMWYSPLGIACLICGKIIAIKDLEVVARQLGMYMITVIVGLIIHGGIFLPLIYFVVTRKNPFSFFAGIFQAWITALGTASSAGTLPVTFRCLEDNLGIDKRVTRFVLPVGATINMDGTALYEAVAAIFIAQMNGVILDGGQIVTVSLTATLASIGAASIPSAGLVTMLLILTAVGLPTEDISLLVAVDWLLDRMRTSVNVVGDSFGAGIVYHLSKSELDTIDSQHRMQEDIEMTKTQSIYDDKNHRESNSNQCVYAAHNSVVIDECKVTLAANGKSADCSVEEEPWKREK
T1 sequence (P43004 whole entry): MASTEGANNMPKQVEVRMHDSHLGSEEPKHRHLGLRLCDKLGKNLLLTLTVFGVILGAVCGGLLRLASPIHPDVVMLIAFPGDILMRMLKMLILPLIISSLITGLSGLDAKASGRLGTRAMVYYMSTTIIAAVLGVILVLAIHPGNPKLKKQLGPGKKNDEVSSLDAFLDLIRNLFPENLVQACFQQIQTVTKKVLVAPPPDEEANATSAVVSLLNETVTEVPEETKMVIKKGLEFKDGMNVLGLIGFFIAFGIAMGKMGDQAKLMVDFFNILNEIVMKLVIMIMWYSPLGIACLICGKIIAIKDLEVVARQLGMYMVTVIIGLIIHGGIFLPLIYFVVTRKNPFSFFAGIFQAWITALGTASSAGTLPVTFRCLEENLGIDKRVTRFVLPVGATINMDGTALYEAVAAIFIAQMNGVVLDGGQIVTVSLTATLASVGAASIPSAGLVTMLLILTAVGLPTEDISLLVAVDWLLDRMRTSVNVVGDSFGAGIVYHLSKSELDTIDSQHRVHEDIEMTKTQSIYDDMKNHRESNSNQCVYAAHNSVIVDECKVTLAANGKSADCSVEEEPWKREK

CC(C)[C@H]1CN[C@H](C(=O)O)[C@H]1CC(=O)O [DHK, Dihydrokainic Acid]
Na-dependent D-aspartate uptake (αTC1 cells): not inhibited
effect on insulin secretion (human isolated islets): No effect
cause of cytotoxicity by TUNEL assay (βTC3 cells): due to apoptosis
Na-dependent transport of aspartate (GLT1 [1]): completely inhibited
Na-dependent aspartate uptake (GLT1 [2]; 1 mM DHK): completely inhibited
IC50 (GLT1 [2]; DHK 0.05-0.3 mM, read-out: IC50, inhibition of Na-dependent D-aspartate uptake): 50 µM
